The values that follow come from US10414778B2, “Methods for treatment of resistant cancer” (New Mexico Tech University Research Park Corporation, priority 2016, dated 2019).

Like-named read-outs stand apart in the source and are kept apart here.

In one test the test system is U251 cells. The test can be described thus: MTT growth inhibition, U251 glioma. The conditions noted are these: Homo sapiens. The test is classed as cell-based, human. The method, then:
(§1) Human cancer cell lines were obtained from the American Type Culture Collection (ATCC, Manassas, Va., USA), the European Collection of Cell Culture (ECACC, Salisbury, UK), and the Deutsche Sammlung von Mikroorganismen und Zellkulturen (DSMZ, Braunschweig, Germany). Human cervical adenocarcinoma HeLa cells were cultured in DMEM supplemented with 10% fetal bovine serum (FBS). Human mammary carcinoma MCF-7 cells were cultured in RPMI supplemented with 10% FBS. The U87 cells (ATCC HTB-14) were cultured in DMEM culture medium, while the A549 cells (DSMZ ACC107) were cultured in RPMI culture medium supplemented with 10% heat-inactivated FBS. The GBM Hs683 (ATCC HTB-138) and the T98G (ATCC CRL-1690) cell lines were cultivated in DMEM supplemented with 10% FBS. The GBM U251 cells (ECACC code 09063001) were cultured in 10% MEM. The human uterine sarcoma MES-SA and MES-SA/Dx5 cells were cultured in RPMI-1640 medium supplemented with 10% FBS with MES SA/Dx5 maintained in the presence of 500 nM Doxorubicin (Sigma™). The U373 glioblastoma cells (ECACC 08061901) were cultured in RPMI culture medium supplemented with 10% heat-inactivated FBS.
(§2) All compounds were dissolved in DMSO at a concentration of either 100 mM or 50 mM prior to cell treatment. The cells were trypsinized and seeded at various cell concentrations depending on the cell type. The cells were grown for 24 h to 72 h, treated with compounds at concentrations ranging from 0.001 to 100 μM, and incubated for 48, 72, or 96 h in 100 or 200 μL media depending on the cell line used. Cells treated with 0.1% DMSO were used as a negative control, and cells treated with 1 μM phenyl arsine oxide (PAO) were used as a positive control.
(§3) Compound 4l was evaluated for in vitro growth inhibition against a panel of cancer cell lines, including U373, U251, U87, T98G, human GBM, and A549 NSCLC. […] Compound 4l was also evaluated for in vitro growth inhibition against the apoptosis-sensitive tumor model Hs683 anaplastic oligodendroglioma as a reference.
(§4) Due to their high potencies, compounds 5l and 5g were used to determine the effects of the compounds on drug-resistant tumor cells. Drug-resistant cell lines (i.e., glioma: Hs683, U373, U251, U87, T98G; lung cancer: A549, H2073; uterine carcinoma: MES-SA/Dx5) were complemented with drug-sensitive cell lines, H1993 lung cancer and MES-SA uterine cancer, which were used as controls. Bulbispermine and paclitaxel were also used as controls. The GI50 values were calculated after 48-96 hours of treatment with the indicated compounds in replicate using the MTT growth assay.

The subject of a further test is MES-SA/Dx5 cells. The test can be described thus: MTT growth inhibition, MDR uterine sarcoma MES-SA/Dx5. In kind it is cell-based, human. The conditions noted are these: for GI50: Homo sapiens, MES-SA/Dx5, MTT. As for the experimental part:
as §1, §2
Compound 4l was also evaluated against the MDR uterine sarcoma cell line (MES-SA/Dx5 to evaluate whether the compounds of the invention were substrates for the MDR cancer efflux systems. The MES-SA/Dx5 cell line was established from the parent uterine sarcoma MES-SA, grown in the presence of increasing concentrations of doxorubicin and is known to be resistant to a number of P-gp substrates.
The selection of doxorubicin-resistant cells (MES-SA/Dx5 cell line) was performed by splitting the cells and allowing the cells to adhere overnight. The next day, the cells were initially exposed to a DOX concentration of 100 nM, which represented the GI50 concentration. The cells were maintained at this DOX concentration until their growth rate reached that of the untreated cells. The DOX concentration was then increased in two-fold increments following the same growth criteria at each concentration to a final DOX concentration of 500 nM. Each new DOX concentration required approximately 2 passages to reach the growth rate of the untreated cells.
as §4

In the next test the test system is Hs683 cells. The experiment in a line: MTT growth inhibition, Hs683 glioma. The test is classed as cell-based, human. The conditions noted are these: Homo sapiens. As for the experimental part:
as §1, §2, §3, §4

In a further test the test system is T98G cells. The test can be described thus: MTT growth inhibition, T98G glioma. The test is classed as cell-based, human. As to conditions: Homo sapiens, T98G. As for the experimental part: as §1, §2, §3, §4
For test [1], the system named is five GBM cell cultures (U373, T98G, U251, Hs683, U87). The experiment in a line: MTT growth curves of five GBM cell cultures (populations resistant to proapoptotic agents). The test is classed as cell-based, human. The source says:
Cells resistant to various pro-apoptotic stimuli often contain a sensitive population that quickly response to pro-apoptotic agents. However, a significant portion of the cells in a culture resist the effects of pro-apoptotic agents even at concentrations 100- or 1000-fold their GI50 values.

In a further test the test system is MCF-7 cells. The experiment in a line: MTT in vitro growth inhibition assay, MCF-7. The test is classed as cell-based, human. The conditions noted are these: Homo sapiens, two independent experiments. The method, then: as §1
Spirodienones 4a-m were subjected to in vitro growth inhibition 3-(4,5-dimethylthiazol-2-yl)-2,5-diphenyltetrazolium bromide (MTT) assays against two cell lines, human HeLa cervical and MCF-7 breast adenocarcinomas.
as §2
To determine the activities of the compounds of the invention toward cancer cells, cell lines treated with different compounds were subjected to an in vitro MTT growth assay using human cervical cancer (HeLa) and human adenocarcinoma (MCF-7) cell lines. The MTT growth assay is a colorimetric assay that measures the metabolic activity of cells via reduction of 3-(4,5-dimethylthiazol-2-yl)-2,5-diphenyltetrazolium bromide (MTT). The reduction of MTT occurs in metabolically-active cells and is characterized by a purple color, which can be quantified via spectrophotometry. A higher absorbance reading indicates a metabolically-active cell, while a low absorbance reading indicates low metabolic activity due to, for example, inhibition of cellular proliferation or cell death.
The values in TABLE 4 are the mean and standard deviation calculated from two independent experiments, which were performed in 4 replicates.

For the next test, the system named is MES-SA cells. The test can be described thus: MTT growth inhibition, MES-SA uterine sarcoma. In kind it is cell-based. The conditions noted are these: Homo sapiens, MES-SA, MTT. The method, then: as §1
All compounds were dissolved in DMSO at a concentration of either 100 mM or 50 mM prior to cell treatment. The cells were trypsinized and seeded at various cell concentrations depending on the cell type. The cells were grown for 24 h to 72 h, treated with compounds at concentrations ranging from 0.001 to 100 μM, and incubated for 48, 72, or 96 h in 100 or 200 μL media depending on the cell line used. Cells treated with 0.1% DMSO were used as a negative control, and cells treated with 1 μM phenyl arsine oxide (PAO) were used as a positive control. […]
Drug-resistant cell lines (i.e., glioma: Hs683, U373, U251, U87, T98G; lung cancer: A549, H2073; uterine carcinoma: MES-SA/Dx5) were complemented with drug-sensitive cell lines, H1993 lung cancer and MES-SA uterine cancer, which were used as controls. […] The GI50 values were calculated after 48-96 hours of treatment with the indicated compounds in replicate using the MTT growth assay.

As for `O=C1C=C[C@]23CC[N@](Cc4c2sc2ccccc42)[C@H]3C1` [Compound 5l], the GI50 with U251 cells (U-251, Table 5, 48-96 hours of treatment, read-out: GI50, Glioma U251) came to 5 µM; in the test on MES-SA/Dx5 cells (Table 5, 48-96 hours of treatment, read-out: GI50, Sarcoma MES-SA/Dx5) it was 7 µM; in the test on Hs683 cells (Hs 683, Table 5, 48-96 hours of treatment, read-out: GI50, Glioma Hs683), 6 µM; with T98G cells (Table 5, 48-96 hours of treatment, read-out: GI50, Glioma T98G) it was 7 µM; in the test on MCF-7 cells (MCF7, Table 4, 48-hour treatment, mean and standard deviation, read-out: MCF-7 Cell Viability GI50), 4.7 ± 0.1 µM; with MES-SA cells (Table 5, 48-96 hours of treatment, read-out: GI50, Sarcoma MES-SA) it was 2 µM. Also, the “dose-dependent effects against cell populations resistant to proapoptotic agents” value in test [1] (U373, T98G, U251, Hs683, U87, MTT, FIG. 8) is “dose-dependent effects”.
For the molecule `O=C1C=CC2(C=C1)CCN(C(=O)C(F)(F)F)Cc1c2sc2ccccc12` [Compound 4l], the GI50 is 4 µM with U251 cells (U-251, Table 3, 48-96 h treatment, read-out: GI50 in vitro values, glioma U251); 5 µM in the test with MES-SA/Dx5 cells (Table 3, 48-96 h treatment, read-out: GI50 in vitro values, uterine sarcoma MES-SA/Dx5); 5 µM with Hs683 cells (Hs 683, Table 3, 48-96 h treatment, read-out: GI50 in vitro values, glioma Hs683); 15 µM with T98G cells (Table 3, 48-96 h treatment, read-out: GI50 in vitro values, glioma T98G); 7 ± 1 µM in the test on MCF-7 cells (MCF7, MCF-7, 48 h treatment, ± SD, read-out: cell viability GI50, MCF-7); 5 µM with MES-SA cells (Table 3, 48-96 h treatment, read-out: GI50 in vitro values, uterine sarcoma MES-SA). Moreover, the “variation in activity, MDR cell line versus parent cell line” value with MES-SA/Dx5 cells (MES-SA/Dx5 versus MES-SA) was “small variation in activity”. Also, the “resistant populations in growth curves of GBM cell cultures” value in test [1] (5 GBM cell lines, FIG. 1, one experiment in six replicates) was “absence of such resistant populations”.
